The values below come from paper PMC4014704, “β-Boomerang Antimicrobial and Antiendotoxic Peptides: Lipidation and Disulfide Bond Effects on Activity and Structure” (Pharmaceuticals, 2014).

The conditions of this data set: buffers. The source says: In addition, incorporation of disulfide bridges in AMPs may stabilize conformations and enhance cationicity and hydrophobicity required for enhanced activity. […] Residue Ile10 was chosen for Cys replacement since this residue is located at the exposed face of the β-strand of the YI12WF structure (Figure 1).
The solution conformations of YI13C, C4YI13C peptides were examined in free solution using two-dimensional ^1H-^1H NOESY and TOCSY experiments.

Peptide text beside a SMILES is read from it.

In the case of `CCCC(=O)N[C@@H](Cc1ccc(O)cc1)C(=O)N[C@H](C(=O)N[C@@H](CC(C)C)C(=O)N[C@@H](Cc1c[nH]c2ccccc12)C(=O)N[C@@H](CCCCN)C(=O)N[C@@H](CCCNC(=N)N)C(=O)N[C@@H](CCCCN)C(=O)N[C@@H](CCCNC(=N)N)C(=O)N[C@@H](Cc1ccccc1)C(=O)N[C@@H](CSSC[C@H](NC(=O)[C@H](Cc1ccccc1)NC(=O)[C@H](CCCNC(=N)N)NC(=O)[C@H](CCCCN)NC(=O)[C@H](CCCNC(=N)N)NC(=O)[C@H](CCCCN)NC(=O)[C@H](Cc1c[nH]c2ccccc12)NC(=O)[C@H](CC(C)C)NC(=O)[C@@H](NC(=O)[C@H](Cc1ccc(O)cc1)NC(=O)CCC)C(C)C)C(=O)N[C@@H](Cc1ccccc1)C(=O)N[C@H](C(N)=O)[C@@H](C)CC)C(=O)N[C@@H](Cc1ccccc1)C(=O)N[C@H](C(N)=O)[C@@H](C)CC)C(C)C` [C4YI12WFC] (HELM PEPTIDE1{[CCCC(=O)[*:2]].Y.V.L.W.K.R.K.R.F.C.F.I.[am]}|PEPTIDE2{[CCCC(=O)[*:2]].Y.V.L.W.K.R.K.R.F.C.F.I.[am]}$PEPTIDE1,PEPTIDE2,11:R3-11:R3$$$V2.0), the “Solubility in buffers (in words)” value is “remained insoluble in buffers”.

With `CCCC(=O)N[C@@H](Cc1ccc(O)cc1)C(=O)N[C@H](C(=O)N[C@@H](CC(C)C)C(=O)N[C@@H](Cc1c[nH]c2ccccc12)C(=O)N[C@@H](CCCCN)C(=O)N[C@@H](CCCNC(=N)N)C(=O)N[C@@H](CCCCN)C(=O)N[C@@H](CCCNC(=N)N)C(=O)N[C@@H](Cc1ccccc1)C(=O)N[C@H](C(=O)N[C@@H](Cc1ccccc1)C(=O)N[C@H](C(N)=O)[C@@H](C)CC)[C@@H](C)CC)C(C)C` [C4YI12WF] (HELM PEPTIDE1{[CCCC(=O)[*:2]].Y.V.L.W.K.R.K.R.F.I.F.I.[am]}$$$$V2.0), the “Solubility in buffers (in words)” value was “remained insoluble in buffers”.

In the case of `CCCCCCCC(=O)N[C@@H](Cc1ccc(O)cc1)C(=O)N[C@H](C(=O)N[C@@H](CC(C)C)C(=O)N[C@@H](Cc1c[nH]c2ccccc12)C(=O)N[C@@H](CCCCN)C(=O)N[C@@H](CCCNC(=N)N)C(=O)N[C@@H](CCCCN)C(=O)N[C@@H](CCCNC(=N)N)C(=O)N[C@@H](Cc1ccccc1)C(=O)N[C@@H](CSSC[C@H](NC(=O)[C@H](Cc1ccccc1)NC(=O)[C@H](CCCNC(=N)N)NC(=O)[C@H](CCCCN)NC(=O)[C@H](CCCNC(=N)N)NC(=O)[C@H](CCCCN)NC(=O)[C@H](Cc1c[nH]c2ccccc12)NC(=O)[C@H](CC(C)C)NC(=O)[C@@H](NC(=O)[C@H](Cc1ccc(O)cc1)NC(=O)CCCCCCC)C(C)C)C(=O)N[C@@H](Cc1ccccc1)C(=O)N[C@H](C(N)=O)[C@@H](C)CC)C(=O)N[C@@H](Cc1ccccc1)C(=O)N[C@H](C(N)=O)[C@@H](C)CC)C(C)C` [C8YI12WFC] (HELM PEPTIDE1{[CCCCCCCC(=O)[*:2]].Y.V.L.W.K.R.K.R.F.C.F.I.[am]}|PEPTIDE2{[CCCCCCCC(=O)[*:2]].Y.V.L.W.K.R.K.R.F.C.F.I.[am]}$PEPTIDE1,PEPTIDE2,11:R3-11:R3$$$V2.0), the “Solubility in buffers (in words)” value is “remained insoluble in buffers”.

Take `CCCCCCCC(=O)N[C@@H](Cc1ccc(O)cc1)C(=O)N[C@H](C(=O)N[C@@H](CC(C)C)C(=O)N[C@@H](Cc1c[nH]c2ccccc12)C(=O)N[C@@H](CCCCN)C(=O)N[C@@H](CCCNC(=N)N)C(=O)N[C@@H](CCCCN)C(=O)N[C@@H](CCCNC(=N)N)C(=O)N[C@@H](Cc1ccccc1)C(=O)N[C@H](C(=O)N[C@@H](Cc1ccccc1)C(=O)N[C@H](C(N)=O)[C@@H](C)CC)[C@@H](C)CC)C(C)C` [C8YI12WF] (HELM PEPTIDE1{[CCCCCCCC(=O)[*:2]].Y.V.L.W.K.R.K.R.F.I.F.I.[am]}$$$$V2.0): the “Solubility in buffers (in words)” value was “remained insoluble in buffers”.
